Source: patent US10681909B2, “Herbicidal triazoles” (FMC Corporation, priority 2014, dated 2020)

How the values were obtained:
barnyardgrass [1] = test: Test E preemergence; assay type: in vivo, Echinochloa crus-galli; conditions: scale 0 to 100
Source text: (§1) Seeds of plant species selected from corn (Zea mays), soybean (Glycine max), lambsquarters (Chenopodium album), poinsettia, wild (wild poinsettia, Euphorbia heterophylla), pigweed, palmer (palmer pigweed, Amaranthus palmeri), waterhemp (common waterhemp, Amaranthus rudis), surinam grass (Brachiaria decumbens), crabgrass, large (large crabgrass, Digitaria sanguinalis), crabgrass, Brazilian (Brazilian crabgrass, Digitaria horizontalis), panicum, fall (fall panicum, Panicum dichotomiflorum), foxtail, giant (giant foxtail, Setaria faberii), foxtail, green (green foxtail, Setaria viridis), goosegrass (Eleusine indica), johnsongrass (Sorghum halepense), ragweed (common ragweed, Ambrosia elatior), barnyardgrass (Echinochloa crus-galli), sandbur (southern sandbur, Cenchrus echinatus), arrowleaf sida (Sida rhombifolia), ryegrass, Italian (Italian ryegrass, Lolium multiflorum), dayflower, VA (Virginia dayflower, Commelina virginica), field bindweed (Convolvulus arvensis), cocklebur (common cocklebur, Xanthium strumarium), morningglory (Ipomoea coccinea), nightshade (eastern black nightshade, Solanum ptycanthum), kochia (Kochia scoparia), nutsedge, yellow (yellow nutsedge, Cyperus esculentus), smartweed (ladysthumb smartweed, Polygonum persicaria), velvetleaf (Abutilon theophrasti), horseweed (Conyza canadensis), and beggarticks (hairy beggarticks, Bidens pilosa), were planted into a silt loam soil and treated preemergence with test chemicals formulated in a non-phytotoxic solvent mixture which included a surfactant.
(§2) At the same time, plants from these crop and weed species and also waterhemp_RES1, (ALS & Triazine resistant common waterhemp, Amaranthus rudis), and waterhemp_RES2, (ALS & HPPD resistant common waterhemp, Amaranthus rudis) were planted in pots containing Sunshine Redi-Earth® planting medium comprising spaghnum peat moss, vermiculite, starter nutrients and dolomitic limestone were treated with postemergence applications of test chemicals formulated in the same manner. Plants ranged in height from 2 to 18 cm for postemergence treatments (1- to 4-leaf stage). Treated plants and controls were maintained in a greenhouse for 14 to 21 d, after which time all species were compared to controls and visually evaluated. Plant response ratings, summarized in Table E, are based on a scale of 0 to 100 where 0 is no effect and 100 is complete control. A dash (-) response means no test result.

sandbur [2] = test: Test E postemergence; assay type: in vivo, Cenchrus echinatus; conditions: scale 0 to 100
Source text: as §1, §2

corn = test: Test E postemergence; assay type: in vivo, Zea mays; conditions: scale 0 to 100
Source text: as §1, §2

ryegrass, Italian = test: Test E postemergence; assay type: in vivo, Lolium multiflorum; conditions: scale 0 to 100
Source text: as §1, §2

foxtail, giant = test: Test E preemergence; assay type: in vivo, Setaria faberii; conditions: scale 0 to 100
Source text: as §1, §2

kochia [3] = test: Test E preemergence; assay type: in vivo, Kochia scoparia; conditions: scale 0 to 100
Source text: as §1, §2

surinam grass = test: Test E preemergence; assay type: in vivo, Brachiaria decumbens; conditions: scale 0 to 100
Source text: as §1, §2

panicum, fall = test: Test E postemergence; assay type: in vivo, Panicum dichotomiflorum; conditions: scale 0 to 100
Source text: as §1, §2

barnyardgrass [4] = test: Test E postemergence; assay type: in vivo, Echinochloa crus-galli; conditions: scale 0 to 100
Source text: as §1, §2

sandbur [5] = test: Test E preemergence; assay type: in vivo, Cenchrus echinatus; conditions: scale 0 to 100
Source text: as §1, §2

crabgrass, Brazilian = test: Test E preemergence; assay type: in vivo, Digitaria horizontalis; conditions: Brazil, scale 0 to 100
Source text: as §1, §2

morningglory [6] = test: Test E preemergence; assay type: in vivo, Ipomoea coccinea; conditions: scale 0 to 100
Source text: as §1, §2

pigweed, palmer = test: Test E postemergence; assay type: in vivo, Amaranthus palmeri; conditions: scale 0 to 100
Source text: as §1, §2

kochia [7] = test: Test E postemergence; assay type: in vivo, Kochia scoparia; conditions: scale 0 to 100
Source text: as §1, §2

beggarticks = test: Test E preemergence; assay type: in vivo, Bidens pilosa; conditions: scale 0 to 100
Source text: as §1, §2

morningglory [8] = test: Test C preemergence; assay type: in vivo, Ipomoea coccinea; conditions: for Plant response rating (scale of 0 to 100 where 0 is no effect and 100 is complete control): Morningglory, preemergence; for Morningglory plant response rating (0 to 100): Preemergence, visual rating after 13 to 15 d
Source text: Seeds of plant species selected from blackgrass (Alopecurus myosuroides), ryegrass, Italian (Italian ryegrass, Lolium multiflorum), wheat (winter wheat, Triticum aestivum), galium (catchweed bedstraw, Galium aparine), corn (Zea mays), crabgrass, large (large crabgrass, Digitaria sanguinalis), foxtail, giant, (giant foxtail, Setaria faberii), johnsongrass (Sorghum halepense), lambsquarters (Chenopodium album), morningglory (Ipomoea coccinea), nutsedge, yellow (yellow nutsedge, Cyperus esculentus), pigweed (Amaranthus retroflexus), ragweed (common ragweed, Ambrosia elatior), soybean (Glycine max), barnyardgrass (Echinochloa crus-galli), oilseed rape (Brassica napus), waterhemp (common waterhemp, Amaranthus rudis), and velvetleaf (Abutilon theophrasti) were planted into a blend of loam soil and sand and treated preemergence with test chemicals formulated in a non-phytotoxic solvent mixture which included a surfactant. At the same time, plants selected from these crop and weed species and also chickweed (common chickweed, Stellaria media), oat, wild (wild oat, Avena fatua), and kochia (Kochia scoparia), were planted in pots containing Sunshine Redi-Earth® planting medium comprising spaghnum peat moss, vermiculite, starter nutrients and dolomitic limestone and treated with postemergence applications of test chemicals formulated in the same manner. Plants ranged in height from 2 to 18 cm (1- to 4-leaf stage) for postemergence treatments. […] A dash (-) response means no test result.

## CCOc1nc(-c2ccccc2)nn1Cc1ccnc(C(F)(F)F)c1 [Compound 27]
Barnyardgrass [1]; 16 g ai/ha
  Plant response rating: 10
Barnyardgrass [1]; 31 g ai/ha
  Plant response rating: 25
Barnyardgrass [1]; 62 g ai/ha
  Plant response rating: 90
Barnyardgrass [1]; 125 g ai/ha
  Plant response rating: 95
Sandbur [2]; 16 g ai/ha
  Plant response rating: 0
Sandbur [2]; 31 g ai/ha
  Plant response rating: 20
Sandbur [2]; 62 g ai/ha
  Plant response rating: 30
Sandbur [2]; 125 g ai/ha
  Plant response rating: 30
corn; 16 g ai/ha
  Plant response rating: 10
corn; 31 g ai/ha
  Plant response rating: 15
corn; 62 g ai/ha
  Plant response rating: 20
corn; 125 g ai/ha
  Plant response rating: 25
ryegrass, Italian; 16 g ai/ha
  Plant response rating: 20
ryegrass, Italian; 31 g ai/ha
  Plant response rating: 30
ryegrass, Italian; 62 g ai/ha
  Plant response rating: 30
ryegrass, Italian; 125 g ai/ha
  Plant response rating: 40
foxtail, giant; 16 g ai/ha
  Plant response rating: 75
foxtail, giant; 31 g ai/ha
  Plant response rating: 95
foxtail, giant; 62 g ai/ha
  Plant response rating: 100
foxtail, giant; 125 g ai/ha
  Plant response rating: 100
Kochia [3]; 16 g ai/ha
  Plant response rating: 65
Kochia [3]; 31 g ai/ha
  Plant response rating: 90
Kochia [3]; 62 g ai/ha
  Plant response rating: 100
Kochia [3]; 125 g ai/ha
  Plant response rating: 100
Surinam grass; 16 g ai/ha
  Plant response rating: 0
Surinam grass; 31 g ai/ha
  Plant response rating: 0
Surinam grass; 62 g ai/ha
  Plant response rating: 10
Surinam grass; 125 g ai/ha
  Plant response rating: 15
panicum, fall; 16 g ai/ha
  Plant response rating: 10
panicum, fall; 31 g ai/ha
  Plant response rating: 10
panicum, fall; 62 g ai/ha
  Plant response rating: 15
panicum, fall; 125 g ai/ha
  Plant response rating: 30
Barnyardgrass [4]; 16 g ai/ha
  Plant response rating: 15
Barnyardgrass [4]; 31 g ai/ha
  Plant response rating: 20
Barnyardgrass [4]; 62 g ai/ha
  Plant response rating: 30
Barnyardgrass [4]; 125 g ai/ha
  Plant response rating: 50
Sandbur [5]; 16 g ai/ha
  Plant response rating: 35
Sandbur [5]; 31 g ai/ha
  Plant response rating: 35
Sandbur [5]; 62 g ai/ha
  Plant response rating: 75
Sandbur [5]; 125 g ai/ha
  Plant response rating: 98
crabgrass, Brazilian; 16 g ai/ha
  Plant response rating: 90
crabgrass, Brazilian; 31 g ai/ha
  Plant response rating: 100
crabgrass, Brazilian; 62 g ai/ha
  Plant response rating: 100
crabgrass, Brazilian; 125 g ai/ha
  Plant response rating: 100
Morningglory [6]; 16 g ai/ha
  Plant response rating: 15
Morningglory [6]; 31 g ai/ha
  Plant response rating: 25
Morningglory [6]; 62 g ai/ha
  Plant response rating: 35
Morningglory [6]; 125 g ai/ha
  Plant response rating: 35
pigweed, palmer; 16 g ai/ha
  Plant response rating: 98
pigweed, palmer; 31 g ai/ha
  Plant response rating: 98
pigweed, palmer; 62 g ai/ha
  Plant response rating: 100
pigweed, palmer; 125 g ai/ha
  Plant response rating: 98
Kochia [7]; 16 g ai/ha
  Plant response rating: 95
Kochia [7]; 31 g ai/ha
  Plant response rating: 100
Kochia [7]; 62 g ai/ha
  Plant response rating: 95
Kochia [7]; 125 g ai/ha
  Plant response rating: 95
beggarticks; 16 g ai/ha
  Plant response rating: 0
beggarticks; 31 g ai/ha
  Plant response rating: 0
beggarticks; 62 g ai/ha
  Plant response rating: 0
beggarticks; 125 g ai/ha
  Plant response rating: 0
Morningglory [8]; 125 g ai/ha
  Plant response rating (scale of 0 to 100 where 0 is no effect and 100 is complete control): 100
Morningglory [8]; 250 g ai/ha
  Plant response rating (scale of 0 to 100 where 0 is no effect and 100 is complete control): 95
Morningglory [8]; 31 g ai/ha
  Morningglory plant response rating (0 to 100): 20
Morningglory [8]; 62 g ai/ha
  Morningglory plant response rating (0 to 100): 80
